From patent publication US5840684A, “Glycopeptide antibiotic derivatives” (Eli Lilly and Company, priority 1995, dated 1998)
≈ marks a conversion by molar mass, not a printed value.

How the values were obtained:
[1] = test system: vancomycin-susceptible enterococci; assay: broth micro-dilution, mean geometric MIC; format: cell-based, Enterococcus faecium and Enterococcus faecalis; conditions: enterococci, 24-hour incubation
[2] = test system: Staphylococcus aureus S13E; format: cell-based
Procedure: (§1) The MIC's were determined using a standard broth micro-dilution assay.

[3] = test system: Staphylococcus aureus SA1199B; format: cell-based
Procedure: as §1

[4] = test system: vancomycin-resistant enterococci; assay: broth micro-dilution, mean geometric MIC; format: cell-based, Enterococcus faecium and Enterococcus faecalis; conditions: enterococci, 24-hour incubation
[5] = test system: Staphylococcus aureus 491; assay: broth micro-dilution MIC; format: cell-based
Procedure: as §1

[6] = test system: Staphylococcus aureus 489; assay: broth micro-dilution MIC; format: cell-based
Procedure: as §1

[7] = test system: Staphylococcus aureus SA1199A; assay: broth micro-dilution MIC; format: cell-based
Procedure: as §1

[8] = test system: Streptococcus pyogenes C203; assay: broth micro-dilution MIC; format: cell-based
Procedure: as §1

Entercoccus faecium 276 = assay: broth micro-dilution MIC; format: cell-based
Procedure: as §1

[9] = test system: Staphylococcus aureus X778; assay: broth micro-dilution MIC; format: cell-based
Procedure: as §1

[10] = test system: Staphylococcus aureus X400; assay: broth micro-dilution MIC; format: cell-based
Procedure: as §1

[11] = test system: Entercoccus faecium 180-1; assay: broth micro-dilution MIC; format: cell-based
Procedure: as §1

[12] = test system: Staphylococcus aureus 447; assay: broth micro-dilution MIC; format: cell-based
Procedure: as §1

Entercoccus faecium 2041 = assay: broth micro-dilution MIC; format: cell-based; conditions: Entercoccus faecium 2041
Procedure: (§2) The formula I compounds have in vitro and in vivo activity against Gram-positive pathogenic bacteria. The MIC's were determined using a standard broth micro-dilution assay.

[13] = test system: Staphylococcus haemolyticus 105; assay: broth micro-dilution MIC; format: cell-based
Procedure: as §2

[14] = test system: Staphylococcus haemolyticus 415; assay: broth micro-dilution MIC; format: cell-based
Procedure: as §2

[15] = test system: Enterococcus gallinarum 245; assay: broth micro-dilution MIC; format: cell-based; conditions: Enterococcus gallinarum 245
Procedure: as §2

[16] = test system: Staphylococcus epidermidis 270; assay: broth micro-dilution MIC; format: cell-based
Procedure: as §2

Entercoccus faecium 180 = assay: broth micro-dilution MIC; format: cell-based; conditions: Entercoccus faecium 180
Procedure: as §2

[17] = test system: Streptococcus pneumoniae P1; assay: broth micro-dilution MIC; format: cell-based
Procedure: as §2

[18] = test system: Staphylococcus aureus 446; assay: broth micro-dilution MIC; format: cell-based
Procedure: as §1

SMILES	mean geometric MIC, Vancomycin Sensitive Strains [1]	MIC [2]	MIC [3]	mean geometric MIC, Vancomycin Resistant Strains [4]	MIC [5]	MIC [6]	MIC [7]	MIC [8]	MIC (Entercoccus faecium 276)	MIC [9]	MIC [10]	MIC [11]	MIC [12]	MIC (Entercoccus faecium 2041)	MIC [13]	MIC [14]	MIC [15]	MIC [16]	MIC (Entercoccus faecium 180)	MIC [17]	other results
CNC(CC(C)C)C(=O)NC1C(=O)NC(CC(N)=O)C(=O)NC2C(=O)NC3C(=O)NC(C(=O)NC(C(=O)O)c4cc(O)cc(O)c4-c4cc3ccc4O)C(OC3CC(C)(N)C(O)C(C)O3)c3ccc(c(Cl)c3)Oc3cc2cc(c3OC2OC(CO)C(O)C(O)C2OC2CC(C)(NCC3CCC4CCCC43)C(O)C(C)O2)Oc2ccc(cc2Cl)C1O (centres unmarked) [Compound 190]	0.29 µg/mL	0.125 µg/mL (≈ 0.0729 µM)	0.5 µg/mL (≈ 0.292 µM)	6.7 µg/mL	0.125 µg/mL (≈ 0.0729 µM)	0.125 µg/mL (≈ 0.0729 µM)	≤ 0.06 µg/mL	≤ 0.06 µg/mL	0.125 µg/mL (≈ 0.0729 µM)	0.125 µg/mL (≈ 0.0729 µM)	≤ 0.06 µg/mL	≤ 0.06 µg/mL	1 µg/mL (≈ 0.583 µM)	≤ 0.06 µg/mL	8 µg/mL (≈ 4.67 µM)	8 µg/mL (≈ 4.67 µM)	8 µg/mL (≈ 4.67 µM)	2 µg/mL (≈ 1.17 µM)	8 µg/mL (≈ 4.67 µM)	≤ 0.06 µg/mL	
CNC(CC(C)C)C(=O)NC1C(=O)NC(CC(N)=O)C(=O)NC2C(=O)NC3C(=O)NC(C(=O)NC(C(=O)O)c4cc(O)cc(O)c4-c4cc3ccc4O)C(OC3CC(C)(N)C(O)C(C)O3)c3ccc(c(Cl)c3)Oc3cc2cc(c3OC2OC(CO)C(O)C(O)C2OC2CC(C)(NCc3ccc(OS(C)(=O)=O)cc3)C(O)C(C)O2)Oc2ccc(cc2Cl)C1O (centres unmarked) [Compound 149]	0.66 µg/mL		1 µg/mL (≈ 0.563 µM)	45 µg/mL	0.5 µg/mL (≈ 0.281 µM)	≤ 0.06 µg/mL	≤ 0.06 µg/mL	≤ 0.06 µg/mL	≤ 0.06 µg/mL	0.5 µg/mL (≈ 0.281 µM)	≤ 0.06 µg/mL	≤ 0.06 µg/mL	4 µg/mL (≈ 2.25 µM)	≤ 0.06 µg/mL	4 µg/mL (≈ 2.25 µM)	16 µg/mL (≈ 9.01 µM)	16 µg/mL (≈ 9.01 µM)	1 µg/mL (≈ 0.563 µM)	1 µg/mL (≈ 0.563 µM)	≤ 0.06 µg/mL	MIC [18]: 0.5 µg/mL (≈ 0.281 µM)
CNC(CC(C)C)C(=O)NC1C(=O)NC(CC(N)=O)C(=O)NC2C(=O)NC3C(=O)NC(C(=O)NC(C(=O)O)c4cc(O)cc(O)c4-c4cc3ccc4O)C(OC3CC(C)(N)C(O)C(C)O3)c3ccc(cc3)Oc3cc2cc(c3OC2OC(CO)C(O)C(O)C2OC2CC(C)(NCc3ccc(Oc4ccccc4)cc3)C(O)C(C)O2)Oc2ccc(cc2)C1O (centres unmarked) [Compound 184]	0.570 µg/mL	1 µg/mL (≈ 0.586 µM)	1 µg/mL (≈ 0.586 µM)	27 µg/mL	0.5 µg/mL (≈ 0.293 µM)	≤ .06 µg/mL	≤ .06 µg/mL		0.5 µg/mL (≈ 0.293 µM)	0.5 µg/mL (≈ 0.293 µM)	0.5 µg/mL (≈ 0.293 µM)	≤ .06 µg/mL	≤ .06 µg/mL	1 µg/mL (≈ 0.586 µM)	0.25 µg/mL (≈ 0.147 µM)	≤ .06 µg/mL	4 µg/mL (≈ 2.34 µM)	4 µg/mL (≈ 2.34 µM)	8 µg/mL (≈ 4.69 µM)		MIC [18]: 2 µg/mL (≈ 1.17 µM)
